Measurements from patent US10030027B2, “Soluble guanylate cyclase stimulators” (MERCK SHARP & DOHME CORP., priority 2015, dated 2018).
Where two headings read alike, the source gives them in different places.

Columns and labels:
[1] = target: sGC α1/β1 heterodimer (Homo sapiens (Human), UniProt Q02108+Q02153); assay: Cell-based sGC functional assay (cyclic GMP assay for sGC activator: CASA assay); design: % Activation: concentration or dose not given beside the values; details: CHO-K1/sGC cells; for Emax: read-out: % Activation; for EC50: inflection point, 4P fit, read-out: IP
In short: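 CHO-K1 cells stably expressing human sGC α1/β1 were pre-incubated 30 min at 25° C with or without 1 μM DETA-NO, then exposed to compound for 1 hr at 37° C with 0.5 mM IBMX and 2.5% DMSO final. Intracellular cGMP was measured by HTRF, expressed as % of reference sGC-HDA maximum; inflection point and maximum fold induction came from 4-parameter fits.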

[2] = target: human recombinant sGC enzyme (Homo sapiens (Human), UniProt Q02108+Q02153); assay: Size Exclusion Chromatography (SEC) competition binding assay using [3H] Ex-77B as the radioligand; details: [3H] Ex-77B radioligand, 24 hours at 37° C.
In short: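 Recombinant human sGC binding measured by competition against tritiated Ex-77B radioligand, with non-specific binding defined by 1 μM unlabeled Ex-77B.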

[3] = CHO-K1, activity expressed as percentage of compound A (standard)
[4] = activity expressed as percentage of compound A (standard)

| SMILES | Emax [1, 3] [%] | EC50 [1] [nM] | Ki [2] [nM] | Emax [1, 4] [%] | % Activation [1, 4] [%] |
| --- | --- | --- | --- | --- | --- |
| CCCCCn1nc(-c2nc(N)c3c(n2)NC(=O)[C@@]3(C)c2ccc(CCC(=O)O)cc2)c2ccc(Cl)cc21 [Example 43B, (S)-3-{4-[4-amino-2-(6-chloro-1-pentyl-1H-indazol-3-yl)-5-methyl-6-oxo-6,7-dihydro-5H-pyrrolo[2,3-d]pyrimidin-5-yl]phenyl}propanoic acid] | 105 | 142 | 0.096 | – | – |
| C[C@@]1(c2ccc(CCc3noc(=O)[nH]3)cc2)C(=O)Nc2nc(-c3nn(Cc4ccccc4F)c4cc(Cl)ccc34)nc(N)c21 [Example 256B, (S)-4-Amino-2-[6-chloro-1-(2-fluorobenzyl)-1H-indazol-3-yl]-5-methyl-5-{4-[2-(5-oxo-4,5-dihydro-1,2,4-oxadiazol-3-yl)ethyl]phenyl}-5,7-dihydro-6H-pyrrolo[2,3-d]pyrimidin-6-one] | – | 2050 | 0.074 | 104 | – |
| Cc1nc([C@]2(C)C(=O)Nc3nc(-c4nn(CCC(F)(F)C(F)(F)F)c5ncccc45)nc(N)c32)sc1CC(=O)O [Example 83B, (S)-(2-{4-amino-5-methyl-6-oxo-2-[1-(3,3,4,4,4-pentafluorobutyl)-1H-pyrazolo[3,4-b]pyridin-3-yl]-6,7-dihydro-5H-pyrrolo[2,3-d]pyrimidin-5-yl}-4-methyl-1,3-thiazol-5-yl)acetic acid] | 80 | 1420 | 1.74 | – | – |
| CC(C)(Cc1csc([C@]2(C)C(=O)Nc3nc(-c4nn(CC5CCCC5)c5cc(Cl)ccc45)nc(N)c32)n1)C(=O)O [Example 162A, (S)-3-(2-{4-amino-2-[6-chloro-1-(cyclopentyl-methyl)-1H-indazol-3-yl]-5-methyl-6-oxo-6,7-dihydro-5H-pyrrolo[2,3-d]pyrimidin-5-yl}-1,3-thiazol-4-yl)-2,2-dimethyl-propanoic acid] | 76.5 | 69 | 0.15 | – | – |
| C[C@@]1(c2ccc(CCC(=O)O)cc2)C(=O)Nc2nc(-c3nn(CCCC(F)(F)F)c4cc(Cl)ccc34)nc(N)c21 [Example 41B, (S)-3-(4-{4-amino-2-[6-chloro-1-(4,4,4-trifluorobutyl)-1H-indazol-3-yl]-5-methyl-6-oxo-6,7-dihydro-5H-pyrrolo[2,3-d]pyrimidin-5-yl}phenyl)propanoic acid] | 85 | 779 | 0.717 | – | – |
| CC(C)(Cc1csc([C@]2(C)C(=O)Nc3nc(-c4nn(CCC(F)(F)C(F)(F)F)c5ncccc45)nc(N)c32)n1)C(=O)NO [Example 97B, (S)-3-(2-{4-Amino-5-methyl-6-oxo-2-[1-(3,3,4,4,4-pentafluorobutyl)-1H-pyrazolo[3,4-b]pyridin-3-yl]-6,7-dihydro-5H-pyrrolo[2,3-d]pyrimidin-5-yl}-1,3-thiazol-4-yl)-N-hydroxy-2,2-dimethylpropanamide] | 122 | 1150 | 0.799 | – | – |
| Cc1cccc(Cn2nc(-c3nc(N)c4c(n3)NC(=O)C4(C)c3cnn(CC(C)(C)C(=O)O)c3)c3ccc(F)cc32)c1F (centres unmarked) [Example 211A, 3-(4-{4-amino-2-[6-fluoro-1-(2-fluoro-3-methyl-benzyl)-1H-indazol-3-yl]-5-methyl-6-oxo-6,7-dihydro-5H-pyrrolo[2,3-d]pyrimidin-5-yl}-1H-pyrazol-1-yl)-2,2-dimethyl-propanoic acid] | 96.2 | 1180 | 0.258 | – | – |
| CC1(c2cnn(CCC(=O)O)n2)C(=O)Nc2nc(-c3nn(CCC(F)(F)C(F)(F)F)c4ncccc34)nc(N)c21 (centres unmarked) [Example 109B, 3-(4-{4-Amino-5-methyl-6-oxo-2-[1-(3,3,4,4,4-pentafluorobutyl)-1H-pyrazolo[3,4-b]pyridin-3-yl]-6,7-dihydro-5H-pyrrolo[2,3-d]pyrimidin-5-yl}-2H-1,2,3-triazol-2-yl)propanoic acid] | 78 | 1660 | 2 | – | – |
| CC(C)(Cc1csc([C@]2(C)C(=O)Nc3nc(-c4nn(CC5CCCCO5)c5ccccc45)nc(N)c32)n1)C(=O)O (single isomer, unassigned) [Example 229AA] | – | 770 | 0.496 | – | 114.6 |
| CC1(c2nc(-c3ccc(C(=O)O)cc3)cs2)C(=O)Nc2nc(-c3nn(CCC(F)(F)C(F)(F)F)c4cc(Cl)ccc34)nc(N)c21 (centres unmarked) [Example 156A, 4-(2-{4-amino-2-[6-chloro-1-(3,3,4,4,4-penta-fluorobutyl)-1H-indazol-3-yl]-5-methyl-6-oxo-6,7-dihydro-5H-pyrrolo[2,3-d]pyrimidin-5-yl}-1,3-thiazol-4-yl)benzoic acid] | 93.5 | 161 | 0.17 | – | – |
| C[C@@]1(c2ccc(CCC(=O)O)cc2)C(=O)Nc2nc(-c3nn(Cc4ccc(F)cc4)c4ccccc34)nc(N)c21 (single isomer, unassigned) [Example 221B] | 92.1 | 150 | 0.163 | – | – |
| CC(C)(Cc1coc(C2(C)C(=O)Nc3nc(-c4nn(Cc5cccc(F)c5)c5ncccc45)nc(N)c32)n1)C(=O)O (centres unmarked) [Example 150A, 3-(2-{4-amino-2-[1-(3-fluoro-benzyl)-1H-pyrazolo [3,4-b]pyridin-3-yl]-5-methyl-6-oxo-6,7-dihydro-5H-pyrrolo[2,3-d]pyrimidin-5-yl}-1,3-oxazol-4-yl)-2,2-dimethyl-propanoic acid] | 102 | 294 | 0.096 | – | – |
| CC1(c2ccc(CCc3nn[nH]n3)cn2)C(=O)Nc2nc(-c3nn(Cc4ccccc4F)c4ccccc34)nc(N)c21 (single isomer, unassigned) [Example 246A, 5-{5-[2-(2H-tetrazol-5-yl)ethyl]pyridin-2-yl}-4-amino-2-[1-(2-fluoro-benzyl)-1H-indazol-3-yl]-5-methyl-5,7-dihydro-6H-pyrrolo[2,3-d] pyrimidin-6-one] | – | 7120 | 0.22 | – | – |
| CC1(c2ccc(CCCC(=O)O)cc2)C(=O)Nc2nc(-c3nn(Cc4ccccc4F)c4ncccc34)nc(N)c21 (centres unmarked) [Example 113B, 4-(4-{4-Amino-2-[1-(2-fluorobenzyl)-1H-pyrazolo[3,4-b]pyridin-3-yl]-5-methyl-6-oxo-6,7-dihydro-5H-pyrrolo[2,3-d]pyrimidin-5-yl}phenyl)butanoic acid] | 89 | 568 | 0.064 | – | – |
| CC1(c2ccc(CCC(=O)O)c(C#N)c2)C(=O)Nc2nc(-c3nn(CCC(F)(F)C(F)(F)F)c4cc(Cl)ccc34)nc(N)c21 (centres unmarked) [Example 120B, 3-(4-{4-Amino-2-[6-chloro-1-(3,3,4,4,4-pentafluorobutyl)-1H-indazol-3-yl]-5-methyl-6-oxo-6,7-dihydro-5H-pyrrolo[2,3-d]pyrimidin-5-yl}-2-cyanophenyl)propanoic acid] | 127 | 1930 | 0.41 | – | – |
| CC1(c2ccc(OCC(=O)O)cc2)C(=O)Nc2nc(-c3nn(Cc4ccccc4F)c4cc(Cl)ccc34)nc(N)c21 (centres unmarked) [Example 260A, (4-{4-Amino-2-[6-chloro-1-(2-fluorobenzyl)-1H-indazol-3-yl]-5-methyl-6-oxo-6,7-dihydro-5H-pyrrolo[2,3-d]pyrimidin-5-yl}phenoxy)acetic acid] | 136 | 125 | 0.058 | – | – |
| CC1(c2ccc(C(=O)O)cc2)C(=O)Nc2nc(-c3nn(Cc4ccccc4F)c4cc(Cl)ccc34)nc(N)c21 (centres unmarked) [Example 209B, 4-{4-amino-2-[6-chloro-1-(2-fluorobenzyl)-1H-indazol-3-yl]-5-methyl-6-oxo-6,7-dihydro-5H-pyrrolo[2,3-d]pyrimidin-5-yl} benzoic acid] | 94.4 | 2480 | 1.64 | – | – |
| COCCn1nc(-c2nc(N)c3c(n2)NC(=O)C3(C)c2cccc(CC(C)(C)C(=O)O)c2)c2ccc(Cl)cc21 (centres unmarked) [Example 39B, 3-(3-{4-amino-2-[6-chloro-1-(2-methoxyethyl)-1H-indazol-3-yl]-5-methyl-6-oxo-6,7-dihydro-5H-pyrrolo[2,3-d]pyrimidin-5-yl}phenyl)-2,2-dimethylpropanoic acid] | 82 | 1090 | 3.65 | – | – |
| CC1(c2ccc(CC(=O)O)cc2)C(=O)Nc2nc(-c3nn(CCC(F)(F)C(F)(F)F)c4ncccc34)nc(N)c21 (centres unmarked) [Example 118A, 2-(4-{4-amino-5-methyl-6-oxo-2-[1-(3,3,4,4,4-pentafluorobutyl)-1H-pyrazolo[3,4-b]pyridin-3-yl]-6,7-dihydro-5H-pyrrolo[2,3-d]pyrimidin-5-yl}phenyl)acetic acid] | 86 | 3510 | 0.166 | – | – |
| CC(C)(Cc1coc(C2(C)C(=O)Nc3nc(-c4nn(Cc5cccc(F)c5F)c5cc(Cl)ccc45)nc(N)c32)n1)C(=O)O (centres unmarked) [Example 180A, 3-(2-{4-amino-2-[6-chloro-1-(2,3-difluorobenzyl)-1H-indazol-3-yl]-5-methyl-6-oxo-6,7-dihydro-5H-pyrrolo[2,3-d]pyrimidin-5-yl}-1,3-oxazol-4-yl)-2,2-dimethyl-propanoic acid] | 121 | 228 | 0.031 | – | – |
| CC(C)(Cn1cc(C2(C)C(=O)Nc3nc(-c4nn(Cc5ccccc5F)c5cc(Cl)ccc45)nc(N)c32)cn1)C(=O)O (centres unmarked) [Example 171A, 3-(4-{4-amino-2-[6-chloro-1-(2-fluorobenzyl)-1H-indazol-3-yl]-5-methyl-6-oxo-6,7-dihydro-5H-pyrrolo[2,3-d]pyrimidin-5-yl}-1H-pyrazol-1-yl)-2,2-dimethyl-propanoic acid] | 135 | 1220 | 0.094 | – | – |
